{"source": "patent US20150253330A1", "about": "“PRE-SELECTION OF SUBJECTS FOR THERAPEUTIC TREATMENT WITH AN HSP90 INHIBITOR BASED ON HYPOXIC STATUS” (Synta Pharmaceuticals Corp., priority 2012, published 2015)", "key": {"advanced GIST": {"test_system": "advanced GIST", "assay": "Phase 2 study in gastrointestinal stromal tumors (GIST)", "format": "in vivo, human", "protocol": "Patients with advanced (e.g., metastatic or unresectable) GIST following failure of prior therapy, e.g., imatinib or sunitinib, received ganetespib (200 mg/m^2) as a 1 hour IV infusion once per week for 3 weeks of a 28 day cycle. GIST status was assessed at 8 weeks per RECIST, until progression. […] Hsp90 client protein levels were analyzed in biopsies pre-therapy and 24-48 h post-treatment with ganetespib in a subset of patients."}, "A549 NSCLC cells": {"test_system": "A549 NSCLC cells", "assay": "Mouse xenograft tumor model, ganetespib and BEZ235 (Example 9)", "format": "in vivo, mice", "conditions": "ganetespib 50 mg/kg weekly i.v.; BEZ235 10 mg/kg 5 times a week p.o.; particularly at later time points; FIG. 8", "from_the_text": "(§1) Female immunodeficient CD-1 (nude) mice (Charles River Laboratories, Wilmington, Mass.) were maintained in a pathogen-free environment, and all in vivo procedures were approved by the Synta Pharmaceuticals Corp. Institutional Animal Care and Use Committee. A549 NSCLC cells (7.5×10^6) were subcutaneously implanted into the animals. Mice bearing established tumors (100-200 mm^3) were randomized into treatment groups of 8 and i.v. dosed via the tail vein with either vehicle, ganetespib formulated in 10/18 DRD (10% DMSO, 18% Cremophor RH 40, 3.6% dextrose, 68.4% water) or p.o. dosed with BEZ235 formulated in PEG300/NMP (90% PEG300, 10% N-Methylpyrrolidone). Animals were treated with ganetespib at 50 mg/kg weekly or BEZ235 at 10 mg/kg 5 times a week, either alone or in combination. Tumor growth inhibition was determined as described previously. See Proia et al, PLoS One. 2011; 6(4):e18552."}, "SNU-1": {"test_system": "SNU-1", "assay": "72 hr viability by Syto60, gastric cell line", "format": "cell-based", "conditions": "Homo sapiens, SNU1, Syto60 (lower), read-out: ganetespib IC50"}, "AGS": {"test_system": "AGS", "assay": "72 hr viability by Syto60, gastric cell line", "format": "cell-based", "conditions": "Homo sapiens, Syto60 (lower), read-out: ganetespib IC50", "protocol": "(§2) Many of the oncoproteins associated with gastric cancer and Hsp90 client proteins including HER2, MET, RAS and the FGFR family. Ganetespib was evaluated for its effect on the growth of AGS (wt-p53 and mut-KRAS) and MKN45 (wt-p53, wt-KRAS, MET amplified) gastric cancer cells. Cells were treated for 72 hr and viability determined by CTG (upper) or Syto60 (lower)."}, "MKN-45": {"test_system": "MKN-45", "assay": "72 hr viability by Syto60, gastric cell line", "format": "cell-based", "conditions": "Homo sapiens, Syto60 (lower), read-out: ganetespib IC50", "protocol": "as §2"}, "Hsp90 client proteins": {"test_system": "Hsp90 client proteins", "assay": "Western blot of Hsp90 client proteins in MKN45 cells", "format": "cell-based"}, "[1]": {"test_system": "Chk1 and Chk2 phosphorylation", "assay": "Western blot of Chk1 and Chk2 phosphorylation after bleomycin in Detroit 562 cells", "format": "cell-based", "conditions": "Detroit 562, 100 nM ganetespib 24 hours prior to bleomycin (5 μM)", "protocol": "Protein expression was measured at the indicated time points after bleomycin treatment.\nCell extracts from Detroit 562 head and neck cancer cells were treated with 100 nM of ganetespib 24 hours prior to receiving the DNA damaging agent bleomycin (5 μM). Protein expression was measured at the indicated time points after bleomycin treatment."}, "[2]": {"test_system": "KRAS substrates, including BRAF and CRAF", "assay": "KRAS substrates at the molecular level in KRAS mutant NSCLC cells", "format": "cell-based"}, "[3]": {"test_system": "human KRAS mutant NSCLC tumor xenografts", "assay": "KRAS mutant NSCLC tumor xenografts in vivo", "design": "species or system mice", "from_the_text": "as §1"}, "VEGF secretion": {"test_system": "VEGF secretion", "assay": "VEGF ELISA of conditioned medium of pancreatic cancer cell lines", "format": "cell-based", "protocol": "VEGF concentration in the conditioned medium (from control and treated cells) was determined using a commercial Human VEGF Quantikine ELISA kit (R&D systems, Minneapolis, Minn.) as per manufacturer's instructions."}}, "note": "“Also recorded” adds a separate entry of the source.", "data": [{"smiles": "CC(C)c1cc(-c2nnc(O)n2-c2ccc3c(ccn3C)c2)c(O)cc1O", "note": "[ganetespib]", "values": [{"measurement": "Adverse events reported in >20% of patients", "setting": "advanced GIST; 200 mg/m^2 once per week for 3 weeks of a 28 day cycle, generally NCI CTC grade 1-2", "result": "diarrhea, fatigue, nausea, vomiting, increased alkaline phosphatase, headache, insomnia, and abdominal pain"}, {"measurement": "Evaluable patients with SD", "setting": "advanced GIST; 4 SD 16 weeks, 8 SD≧8 weeks", "result": "12/23"}, {"measurement": "Client proteins in paired tumor biopsies", "setting": "advanced GIST; biopsies from 4 patients, pre-therapy and 24-48 h post-treatment", "result": "did not show prolonged inhibition of activated KIT or its downstream pathways"}, {"measurement": "Tolerability", "setting": "advanced GIST; once-weekly dosing, no evidence of severe liver, ocular, cardiac or renal toxicity", "result": "well-tolerated"}, {"measurement": "Average tumor volume as compared to vehicle", "setting": "A549 NSCLC cells", "result": "significantly reduced"}, {"measurement": "IC50", "setting": "SNU-1", "result": 6, "unit": "nM"}, {"measurement": "IC50", "setting": "AGS", "result": 5, "unit": "nM"}, {"measurement": "IC50", "setting": "MKN-45", "result": 8, "unit": "nM"}, {"measurement": "Effect on Hsp90 client proteins by western blot", "setting": "Hsp90 client proteins", "result": "complete degradation of MET and IGF-IR"}, {"measurement": "Bleomycin-induced Chk1 and Chk2 phosphorylation", "setting": "[1]", "result": "blocked"}, {"measurement": "Effect on KRAS substrates", "setting": "[2]", "result": "induced the destabilization of several KRAS substrates, including BRAF and CRAF"}, {"measurement": "Tumor growth inhibition in the combination arm", "setting": "[3]; ganetespib combined with a PI3K/mTOR inhibitor", "result": "considerable improvement in tumor growth inhibition"}, {"measurement": "Growth of KRAS mutant NSCLC tumor xenografts", "setting": "[3]; single agent", "result": "effectively suppressed the growth"}, {"measurement": "Tumor regression", "setting": "[3]; single agent", "result": "did not induce tumor regression"}, {"measurement": "VEGF secretion in the culture medium", "setting": "VEGF secretion", "result": "reduced VEGF secretion; also recorded: decrease in VEGF secretion; also recorded: down-regulation of VEGF secretion"}]}]}
